# Results published in ChEMBL document CHEMBL1135861, “The discovery of novel small molecule non-peptide gonadotropin releasing hormone (GnRH) receptor antagonists” (Bioorg Med Chem Lett, 2002).
# Legend:
# [1] = biological target: T1, Gonadotropin-releasing hormone receptor (Rattus norvegicus, UniProt P30969); assay: Binding affinity to rat gonadotropin-releasing hormone receptor
# T1 sequence (P30969 whole entry): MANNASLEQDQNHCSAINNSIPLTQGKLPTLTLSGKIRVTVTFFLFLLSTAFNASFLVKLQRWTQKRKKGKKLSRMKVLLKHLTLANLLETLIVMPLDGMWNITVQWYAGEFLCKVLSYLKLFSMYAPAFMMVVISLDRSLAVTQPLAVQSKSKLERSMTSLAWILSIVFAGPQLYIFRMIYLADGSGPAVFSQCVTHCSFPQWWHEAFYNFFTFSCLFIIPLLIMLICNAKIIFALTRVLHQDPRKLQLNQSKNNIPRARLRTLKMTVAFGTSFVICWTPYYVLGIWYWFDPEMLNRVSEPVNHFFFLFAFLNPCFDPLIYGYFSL
# [2] = biological target: T2, Gonadotropin-releasing hormone receptor (Homo sapiens, UniProt P30968); assay: In vitro binding affinity to human gonadotropin-releasing hormone receptor
# T2 sequence (P30968 whole entry): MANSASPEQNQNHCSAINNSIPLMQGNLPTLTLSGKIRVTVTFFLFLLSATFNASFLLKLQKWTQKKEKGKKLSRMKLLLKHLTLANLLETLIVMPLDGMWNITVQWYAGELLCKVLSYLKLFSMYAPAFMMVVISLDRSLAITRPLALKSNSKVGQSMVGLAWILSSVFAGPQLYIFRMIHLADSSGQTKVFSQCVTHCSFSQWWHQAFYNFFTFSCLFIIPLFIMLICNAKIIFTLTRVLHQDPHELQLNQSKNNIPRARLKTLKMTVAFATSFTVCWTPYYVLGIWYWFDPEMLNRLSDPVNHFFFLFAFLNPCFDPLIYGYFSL
Ki [1] [µM],Ki [2] [µM],Compound
5.21,0.7,Cc1cc2c(cc1Cc1ccc(C(=O)NCC3CCNCC3)o1)C(C)(C)CCC2(C)C
3.26,0.054,Cc1cc2c(cc1Cc1ccc(C(=O)NCC3CCN(C(=O)OC(C)(C)C)CC3)o1)C(C)(C)CCC2(C)C
0.28,0.14,Cc1cc2c(cc1Cc1ccc(C(=O)NCc3ccc(CN)cc3)o1)C(C)(C)CCC2(C)C
0.89,0.174,Cc1cc2c(cc1Cc1ccc(C(=O)NCC3CCCC(CN)C3)o1)C(C)(C)CCC2(C)C (stereo not drawn)
1.55,0.18,Cc1cc2c(cc1Cc1ccc(C(=O)NCC3CCCCC3)o1)C(C)(C)CCC2(C)C
0.094,0.091,Cc1cc2c(cc1Cc1ccc(C(=O)NCc3cccc(CN)c3)o1)C(C)(C)CCC2(C)C
2.73,0.051,CCOC(=O)[C@H]1CC[C@H](CNC(=O)c2ccc(Cc3cc4c(cc3C)C(C)(C)CCC4(C)C)o2)CC1
0.73,0.04,Cc1cc2c(cc1Cc1ccc(C(=O)NC[C@H]3CC[C@@H](CNC(=N)N)CC3)o1)C(C)(C)CCC2(C)C
0.83,0.024,COC(=O)[C@H]1CC[C@H](CNC(=O)c2ccc(Cc3cc4c(cc3C)C(C)(C)CCC4(C)C)o2)CC1
0.865,0.024,Cc1cc2c(cc1Cc1ccc(C(=O)NCC3CCC(CNCc4cc(=O)[nH]c(=O)[nH]4)CC3)o1)C(C)(C)CCC2(C)C (stereo not drawn)
0.06,0.083,Cc1ccc(CNC(=O)c2ccc(Cc3cc4c(cc3C)C(C)(C)CCC4(C)C)o2)cc1
0.14,0.079,Cc1cc2c(cc1Cc1ccc(C(=O)NCc3ccc(CN(C)C)cc3)o1)C(C)(C)CCC2(C)C
0.24,0.102,Cc1cc2c(cc1Cc1ccc(C(=O)NCc3ccccc3)o1)C(C)(C)CCC2(C)C
0.25,0.02,Cc1cc2c(cc1Cc1ccc(C(=O)NCC3CCCC(CNC(=O)C(F)(F)F)C3)o1)C(C)(C)CCC2(C)C (stereo not drawn)
2.04,0.22,Cc1cc2c(cc1Cc1ccc(C(=O)NCC3CCN(C(=N)N)CC3)o1)C(C)(C)CCC2(C)C
0.56,0.017,Cc1cc2c(cc1Cc1ccc(C(=O)NCC3CCC(C#N)CC3)o1)C(C)(C)CCC2(C)C (stereo not drawn)
0.385,0.016,Cc1cc2c(cc1Cc1ccc(C(=O)NC[C@H]3CC[C@H](CNC(=N)N)CC3)o1)C(C)(C)CCC2(C)C
0.27,0.013,Cc1cc2c(cc1Cc1ccc(C(=O)NC[C@H]3CC[C@H](C(N)=O)CC3)o1)C(C)(C)CCC2(C)C
0.73,0.042,Cc1cc2c(cc1Cc1ccc(C(=O)NCC3CCC(CN)CC3)o1)C(C)(C)CCC2(C)C (stereo not drawn)
3,0.25,Cc1cc2c(cc1Cc1ccc(C(=O)NC[C@H]3CC[C@H](C(=O)O)CC3)o1)C(C)(C)CCC2(C)C
0.055,0.056,Cc1cnc(CNC(=O)c2ccc(Cc3cc4c(cc3C)C(C)(C)CCC4(C)C)o2)cn1
0.52,0.04,Cc1cc2c(cc1Cc1ccc(C(=O)NCC3CCC(CNC(=N)N)CC3)o1)C(C)(C)CCC2(C)C (stereo not drawn)
1.2,0.18,Cc1cc2c(cc1Cc1ccc(C(=O)NCC3CCC(CNCc4c(C)noc4C)CC3)o1)C(C)(C)CCC2(C)C (stereo not drawn)
2.72,0.066,Cc1cc2c(cc1Cc1ccc(C(=O)NCC3CCC(CNC(=O)C(F)(F)F)CC3)o1)C(C)(C)CCC2(C)C (stereo not drawn)
